# Measurements: patent US20260285875A1, “INHIBITORS OF PARG” (858 Therapeutics, Inc., priority 2023, published 2026)
# Biological target: T1, cellular PARG (Homo sapiens, UniProt Q86W56)
# T1 construct: endogenous in cells; host or cells: HeLa
# Assay: Nuclear PAR accumulation assay (immunofluorescence high-content imaging, MMS-treated HeLa cells)
# Type: cell-based
# Settings: 1 hour compound then MMS 50 μg/mL for an additional hour
# How it was run: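 HeLa cells pretreated with compound for 1 h at 37° C, then given 50 μg/mL MMS for another hour. After methanol fixation, PAR was immunostained with DAPI nuclear counterstain; per-nucleus intensity and percent PAR-positive cells were imaged at 20× (≥1,000 cells/well). IC50 from four-parameter logistic fit.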
# T1 sequence (Q86W56 whole entry): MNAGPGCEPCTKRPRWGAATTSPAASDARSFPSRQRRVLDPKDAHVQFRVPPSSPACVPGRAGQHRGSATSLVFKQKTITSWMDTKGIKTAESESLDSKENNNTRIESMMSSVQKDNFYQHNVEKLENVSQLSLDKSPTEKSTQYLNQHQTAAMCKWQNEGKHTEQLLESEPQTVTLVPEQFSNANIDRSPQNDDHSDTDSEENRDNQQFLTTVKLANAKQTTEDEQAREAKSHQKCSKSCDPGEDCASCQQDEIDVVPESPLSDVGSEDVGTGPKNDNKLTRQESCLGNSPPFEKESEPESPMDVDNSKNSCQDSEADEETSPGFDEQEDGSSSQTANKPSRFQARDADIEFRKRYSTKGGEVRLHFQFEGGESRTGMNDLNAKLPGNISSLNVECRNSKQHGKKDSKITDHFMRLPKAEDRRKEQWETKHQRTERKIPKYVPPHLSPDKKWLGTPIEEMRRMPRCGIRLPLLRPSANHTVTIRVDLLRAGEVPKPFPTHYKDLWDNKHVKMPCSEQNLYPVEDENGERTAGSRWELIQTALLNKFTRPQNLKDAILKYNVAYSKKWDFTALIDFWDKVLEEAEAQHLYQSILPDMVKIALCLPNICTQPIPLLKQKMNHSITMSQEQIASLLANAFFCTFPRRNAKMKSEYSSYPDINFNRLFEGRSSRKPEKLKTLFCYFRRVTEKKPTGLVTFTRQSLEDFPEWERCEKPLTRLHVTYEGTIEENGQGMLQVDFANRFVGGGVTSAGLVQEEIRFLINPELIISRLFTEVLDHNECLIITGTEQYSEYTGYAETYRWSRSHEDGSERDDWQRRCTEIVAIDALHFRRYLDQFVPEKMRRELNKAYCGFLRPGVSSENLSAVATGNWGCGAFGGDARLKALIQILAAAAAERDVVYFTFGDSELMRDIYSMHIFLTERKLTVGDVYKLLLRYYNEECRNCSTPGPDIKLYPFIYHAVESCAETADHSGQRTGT
row,Molecule,IC50 [µM]
1,"CC(=O)N1CCn2ncc(CN3C(=O)c4cc(S(=O)(=O)NC5(C)CC5)ccc4N4C3=NC[C@H]4C)c2C1 [Example 279, (R)-4-((5-acetyl-4,5,6,7-tetrahydropyrazolo[1,5-a]pyrazin-3-yl)methyl)-1-methyl-N-(1-methylcyclopropyl)-5-oxo-1,2,4,5-tetrahydroimidazo[1,2-a]quinazoline-7-sulfonamide]",0.1 to 1
2,"[2H]C([2H])(c1cnn(C)c1)N1C(=O)c2cc(S(=O)(=O)NC3(C)CC3)ccc2N2C1=NC[C@H]2C#Cc1ccc(N(C)C)nc1 [Example 280, (R)-1-((6-(dimethylamino)pyridin-3-yl)ethynyl)-4-((1-methyl-1H-pyrazol-4-yl)methyl-d2)-N-(1-methylcyclopropyl)-5-oxo-1,2,4,5-tetrahydroimidazo[1,2-a]quinazoline-7-sulfonamide]",< 0.1
3,"[2H]C([2H])(c1cnn(C)c1)N1C(=O)c2cc(S(=O)(=O)NC3(C)CC3)ccc2N2C1=NC[C@H]2C#CC1=CCNCC1 [Example 281, (R)-4-((1-methyl-1H-pyrazol-4-yl)methyl-d2)-N-(1-methylcyclopropyl)-5-oxo-1-((1,2,3,6-tetrahydropyridin-4-yl)ethynyl)-1,2,4,5-tetrahydroimidazo[1,2-a]quinazoline-7-sulfonamide]",< 0.1
4,"[2H]C([2H])(c1cnn(C)c1)N1C(=O)c2cc(S(=O)(=O)NC3(C)CC3)ccc2N2C1=NC[C@H]2C#CC1=CCOCC1 [Example 282, (R)-1-((3,6-dihydro-2H-pyran-4-yl)ethynyl)-4-((1-methyl-1H-pyrazol-4-yl)methyl-d2)-N-(1-methylcyclopropyl)-5-oxo-1,2,4,5-tetrahydroimidazo[1,2-a]quinazoline-7-sulfonamide]",< 0.1
5,"[2H]C([2H])(c1cnn(C)c1)N1C(=O)c2cc(S(=O)(=O)NC3(C)CC3)ccc2N2C1=N[C@@H]1C[C@@H](N)C[C@@H]12 [Example 283, (7aR,9R,10aS)-9-amino-6-((1-methyl-1H-pyrazol-4-yl)methyl-d2)-N-(1-methylcyclopropyl)-5-oxo-6,7a,8,9,10,10a-hexahydro-5H-cyclopenta[4,5]imidazo[1,2-a]quinazoline-3-sulfonamide]",1 to 10
6,"[2H]C([2H])(c1cnn(C)c1)N1C(=O)c2cc(S(=O)(=O)NC3(C)CC3)ccc2N2C1=N[C@H]1C[C@H](N(C)C)C[C@H]12 [Example 284, (7aS,9S,10aR)-9-(dimethylamino)-6-((1-methyl-1H-pyrazol-4-yl)methyl-d2)-N-(1-methylcyclopropyl)-5-oxo-6,7a,8,9,10,10a-hexahydro-5H-cyclopenta[4,5]imidazo[1,2-a]quinazoline-3-sulfonamide]",1 to 10
7,"[2H]C([2H])(c1cnn(C)c1)N1C(=O)c2cc(S(=O)(=O)NC3(C)CC3)ccc2N2C1=N[C@@H]1C[C@@H](N(C)C)C[C@@H]12 [Example 285, (7aR,9R,10aS)-9-(dimethylamino)-6-((1-methyl-1H-pyrazol-4-yl)methyl-d2)-N-(1-methylcyclopropyl)-5-oxo-6,7a,8,9,10,10a-hexahydro-5H-cyclopenta[4,5]imidazo[1,2-a]quinazoline-3-sulfonamide]",0.1 to 1
8,"[2H]C([2H])(c1cnn(C)c1)N1C(=O)c2cc(S(=O)(=O)NC3(C)CC3)c(NCc3ccc(OC)nc3)cc2N2C1=N[C@H]1CCC[C@H]12 [Example 286, (7aS,10aR)-2-(((6-methoxypyridin-3-yl)methyl)amino)-6-((1-methyl-1H-pyrazol-4-yl)methyl-d2)-N-(1-methylcyclopropyl)-5-oxo-6,7a,8,9,10,10a-hexahydro-5H-cyclopenta[4,5]imidazo[1,2-a]quinazoline-3-sulfonamide]",< 0.1
9,"[2H]C([2H])(c1cnn(C)c1)N1C(=O)c2cc(S(=O)(=O)NC3(C)CC3)c(NCC#Cc3cncnc3)cc2N2C1=N[C@H]1CCC[C@H]12 [Example 287, (7aS,10aR)-6-((1-methyl-1H-pyrazol-4-yl)methyl-d2)-N-(1-methylcyclopropyl)-5-oxo-2-((3-(pyrimidin-5-yl)prop-2-yn-1-yl)amino)-6,7a,8,9,10,10a-hexahydro-5H-cyclopenta[4,5]imidazo[1,2-a]quinazoline-3-sulfonamide]",< 0.1
10,"Cn1ncc(C#C[C@@H]2CN=C3N(Cc4cnn5c4CNCC5)C(=O)c4cc(S(=O)(=O)NC5(C)CC5)ccc4N32)n1 [Example 288, (R)-1-((2-methyl-2H-1,2,3-triazol-4-yl)ethynyl)-N-(1-methylcyclopropyl)-5-oxo-4-((4,5,6,7-tetrahydropyrazolo[1,5-a]pyrazin-3-yl)methyl)-1,2,4,5-tetrahydroimidazo[1,2-a]quinazoline-7-sulfonamide]",< 0.1
11,"[2H]C([2H])(c1cnn(C)c1)N1C(=O)c2cc(S(=O)(=O)NC3(C)CC3)c(F)cc2N2C1=NC[C@H]2C#C [Example 289, (R)-1-ethynyl-8-fluoro-4-((1-methyl-1H-pyrazol-4-yl)methyl-d2)-N-(1-methylcyclopropyl)-5-oxo-1,2,4,5-tetrahydroimidazo[1,2-a]quinazoline-7-sulfonamide]",< 0.1
12,"CC1(NS(=O)(=O)c2ccc3c(c2)C(=O)N(Cc2cnn4c2CNCC4)C2=N[C@H]4CCC[C@H]4N23)CC1 [Example 290, (7aS,10aR)-N-(1-methylcyclopropyl)-5-oxo-6-((4,5,6,7-tetrahydropyrazolo[1,5-a]pyrazin-3-yl)methyl)-6,7a,8,9,10,10a-hexahydro-5H-cyclopenta[4,5]imidazo[1,2-a]quinazoline-3-sulfonamide]",0.1 to 1
13,"CC(=O)N1CCn2ncc(CN3C(=O)c4cc(S(=O)(=O)NC5(C)CC5)ccc4N4C3=N[C@H]3CCC[C@H]34)c2C1 [Example 291, (7aS,10aR)-6-((5-acetyl-4,5,6,7-tetrahydropyrazolo[1,5-a]pyrazin-3-yl)methyl)-N-(1-methylcyclopropyl)-5-oxo-6,7a,8,9,10,10a-hexahydro-5H-cyclopenta[4,5]imidazo[1,2-a]quinazoline-3-sulfonamide]",0.1 to 1
14,"CC(=O)N1CCN(c2cc(S(=O)(=O)NC3(C)CC3)cc3c2N2C(=NC[C@H]2C)N(Cc2cnn(C)c2)C3=O)CC1 [Example 292, (R)-9-(4-acetylpiperazin-1-yl)-1-methyl-4-((1-methyl-1H-pyrazol-4-yl)methyl)-N-(1-methylcyclopropyl)-5-oxo-1,2,4,5-tetrahydroimidazo[1,2-a]quinazoline-7-sulfonamide]",0.1 to 1
15,"COC(=O)[C@@H]1N=C2N(Cc3cnn(C)c3)C(=O)c3cc(S(=O)(=O)NC4(C)CC4)ccc3N2[C@@H]1C [Example 293, methyl (1R,2R)-1-methyl-4-((1-methyl-1H-pyrazol-4-yl)methyl)-7-(N-(1-methylcyclopropyl)sulfamoyl)-5-oxo-1,2,4,5-tetrahydroimidazo[1,2-a]quinazoline-2-carboxylate]",0.1 to 1
16,"C[C@@H]1[C@H](CO)N=C2N(Cc3cnn(C)c3)C(=O)c3cc(S(=O)(=O)NC4(C)CC4)ccc3N21 [Example 294, (1R,2R)-2-(hydroxymethyl)-1-methyl-4-((1-methyl-1H-pyrazol-4-yl)methyl)-N-(1-methylcyclopropyl)-5-oxo-1,2,4,5-tetrahydroimidazo[1,2-a]quinazoline-7-sulfonamide]",< 0.1
17,"CC(=O)NC[C@@H]1N=C2N(Cc3cnn(C)c3)C(=O)c3cc(S(=O)(=O)NC4(C)CC4)ccc3N2[C@@H]1C [Example 295, N-(((1R,2S)-1-methyl-4-((1-methyl-1H-pyrazol-4-yl)methyl)-7-(N-(1-methylcyclopropyl)sulfamoyl)-5-oxo-1,2,4,5-tetrahydroimidazo[1,2-a]quinazolin-2-yl)methyl)acetamide]",0.1 to 1
18,"C#C[C@@H]1CN=C2N(Cc3cnn4c3CNCC4)C(=O)c3cc(S(=O)(=O)NC4(C)CC4)cc(Cl)c3N21 [Example 297, (R)-9-chloro-1-ethynyl-N-(1-methylcyclopropyl)-5-oxo-4-((4,5,6,7-tetrahydropyrazolo[1,5-a]pyrazin-3-yl)methyl)-1,2,4,5-tetrahydroimidazo[1,2-a]quinazoline-7-sulfonamide]",< 0.1

# Tested on: sensitive cells
# Assay: not given
# Settings: S-phase dependent; cited from earlier work
row,Molecule,accumulation of nuclear RPA protein and induction of pan-nuclear QH2AX expression
1,PDD00017273,S-phase dependent accumulation of nuclear RPA protein and induction of pan-nuclear QH2AX expression
